Data reported in patent publication US20170190671A1, “BIS(ARYL)CATECHOL DERIVATIVES AS HERBICIDES” (E I DU PONT DE NEMOURS AND COMPANY, priority 2014, published 2017).

Assays:
Assay type in all cases: in vivo
kochia (Kochia scoparia) [1] = experiment: Test A preemergence; settings: Bassia scoparia, pre-emergence, 240 h, 0 to 100 scale (0 no effect, 100 complete control), read-out: Kochia plant response rating
How it was run: (§1)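 Greenhouse pot test, loam/sand soil. Formulation: non-phytotoxic solvent mix plus surfactant. Pre: directed spray onto soil after sowing. Post: plants at 1–2 leaf, 2–10 cm. Rated visually vs untreated controls at ~10 d, 0 (no effect) to 100 (complete control).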

[2] = system: giant foxtail (Setaria faberii); experiment: Test A preemergence; settings: Setaria faberi, pre-emergence, 240 h, 0 to 100 scale (0 no effect, 100 complete control), read-out: Foxtail, Giant plant response rating
How it was run: as §1

[3] = system: pigweed (Amaranthus retroflexus); experiment: Test A preemergence; settings: Amaranthus retroflexus, pre-emergence, 240 h, 0 to 100 scale (0 no effect, 100 complete control), read-out: Pigweed plant response rating
How it was run: as §1

[4] = system: ragweed (common ragweed, Ambrosia elatior); experiment: Test A preemergence; settings: Ambrosia artemisiifolia, pre-emergence, 240 h, 0 to 100 scale (0 no effect, 100 complete control), read-out: Ragweed plant response rating
How it was run: as §1

[5] = system: Italian ryegrass (Lolium multiflorum); experiment: Test A preemergence; settings: Lolium multiflorum, pre-emergence, 240 h, 0 to 100 scale (0 no effect, 100 complete control), read-out: Ryegrass, Italian plant response rating
How it was run: as §1

[6] = system: barnyardgrass (Echinochloa crus-galli); experiment: Test A preemergence; settings: Echinochloa crus-galli, pre-emergence, 240 h, 0 to 100 scale (0 no effect, 100 complete control), read-out: Barnyardgrass plant response rating
How it was run: as §1

[7] = system: blackgrass (Alopecurus myosuroides); experiment: Test A postemergence; settings: Alopecurus myosuroides, post-emergence, 240 h, 0 to 100 scale, read-out: Plant response rating, Blackgrass
How it was run: as §1

corn (Zea mays) = experiment: Test A postemergence; settings: Zea mays, post-emergence, 240 h, 0 to 100 scale
How it was run: as §1

kochia (Kochia scoparia) [8] = experiment: Test A postemergence; settings: Bassia scoparia, post-emergence, 240 h, 0 to 100 scale, read-out: Plant response rating, Kochia
How it was run: as §1

[9] = system: giant foxtail (Setaria faberii); experiment: Test A postemergence; settings: Setaria faberi, post-emergence, 240 h, 0 to 100 scale, read-out: Plant response rating, Foxtail, Giant
How it was run: as §1

[10] = system: wheat (Triticum aestivum); experiment: Test A postemergence; settings: Triticum aestivum, post-emergence, 240 h, 0 to 100 scale, read-out: Plant response rating, Wheat
How it was run: as §1

[11] = system: pigweed (Amaranthus retroflexus); experiment: Test A postemergence; settings: Amaranthus retroflexus, post-emergence, 240 h, 0 to 100 scale, read-out: Plant response rating, Pigweed
How it was run: as §1

[12] = system: ragweed (common ragweed, Ambrosia elatior); experiment: Test A postemergence; settings: Ambrosia artemisiifolia, post-emergence, 240 h, 0 to 100 scale, read-out: Plant response rating, Ragweed
How it was run: as §1

[13] = system: Italian ryegrass (Lolium multiflorum); experiment: Test A postemergence; settings: Lolium multiflorum, post-emergence, 240 h, 0 to 100 scale, read-out: Plant response rating, Ryegrass, Italian
How it was run: as §1

[14] = system: barnyardgrass (Echinochloa crus-galli); experiment: Test A postemergence; settings: Echinochloa crus-galli, post-emergence, 240 h, 0 to 100 scale, read-out: Plant response rating, Barnyardgrass
How it was run: as §1

[15] = system: galium (catchweed bedstraw, Galium aparine); experiment: Test A postemergence; settings: Galium, post-emergence, 240 h, 0 to 100 scale, read-out: Plant response rating, Galium
How it was run: as §1

[16] = system: ducksalad (Heteranthera limosa); experiment: Test B flooded paddy; settings: Heteranthera limosa, 336 h; 250 g ai/ha, Flood, 13 to 15 days, scale 0 (no effect) to 100 (complete control); read-out: Plant response rating, Ducksalad
How it was run: (§2)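 Pots were flooded to 3 cm above the soil surface at treatment, compound applied directly to the paddy water, and that depth held throughout. Plants were kept in a greenhouse for 13 to 15 days, then visually rated against untreated controls.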

[17] = system: sedge, umbrella (small-flower umbrella sedge, Cyperus difformis); experiment: Test B flooded paddy; settings: Cyperus difformis, 336 h; 250 g ai/ha, Flood, 13 to 15 days, scale 0 (no effect) to 100 (complete control); read-out: Plant response rating, Sedge, Umbrella
How it was run: as §2

rice (Oryza sativa) = experiment: Test B flooded paddy; settings: Oryza sativa, 336 h; 250 g ai/ha, Flood, 13 to 15 days, scale 0 (no effect) to 100 (complete control); read-out: Plant response rating, Rice
How it was run: as §2

[18] = system: barnyardgrass (Echinochloa crus-galli); experiment: Test B flooded paddy; settings: Echinochloa crus-galli, 336 h; 250 g ai/ha, Flood, 13 to 15 days, scale 0 (no effect) to 100 (complete control); read-out: Plant response rating, Barnyardgrass
How it was run: as §2

FCc1cccc(Oc2ncc(Cl)cn2)c1Oc1ncc(Cl)cn1 [Compound 44]
pest or weed control at 31 g/ha (kochia (Kochia scoparia) [1]; 31 g ai/ha): 60% | pest or weed control at 125 g/ha (kochia (Kochia scoparia) [1]; 125 g ai/ha): 100% | pest or weed control at 31 g/ha ([2]; 31 g ai/ha): 90% | pest or weed control at 125 g/ha ([2]; 125 g ai/ha): 100% | pest or weed control at 31 g/ha ([3]; 31 g ai/ha): 100% | pest or weed control at 125 g/ha ([3]; 125 g ai/ha): 100% | pest or weed control at 31 g/ha ([4]; 31 g ai/ha): 0% | pest or weed control at 125 g/ha ([4]; 125 g ai/ha): 40% | pest or weed control at 31 g/ha ([5]; 31 g ai/ha): 0% | pest or weed control at 125 g/ha ([5]; 125 g ai/ha): 20% | pest or weed control at 31 g/ha ([6]; 31 g ai/ha): 20% | pest or weed control at 125 g/ha ([6]; 125 g ai/ha): 100% | pest or weed control at 31 g/ha ([7]; 31 g ai/ha): 40% | pest or weed control at 125 g/ha ([7]; 125 g ai/ha): 80% | Corn plant response rating (crop injury, 0 = no effect, 100 = complete kill) at 31 g/ha (corn (Zea mays); 31 g ai/ha): 20% | Corn plant response rating (crop injury, 0 = no effect, 100 = complete kill) at 125 g/ha (corn (Zea mays); 125 g ai/ha): 70% | pest or weed control at 31 g/ha (kochia (Kochia scoparia) [8]; 31 g ai/ha): 50% | pest or weed control at 125 g/ha (kochia (Kochia scoparia) [8]; 125 g ai/ha): 80% | pest or weed control at 31 g/ha ([9]; 31 g ai/ha): 10% | pest or weed control at 125 g/ha ([9]; 125 g ai/ha): 90% | plant injury at 31 g/ha ([10]; 31 g ai/ha): 20% | plant injury at 125 g/ha ([10]; 125 g ai/ha): 80% | pest or weed control at 31 g/ha ([11]; 31 g ai/ha): 30% | pest or weed control at 125 g/ha ([11]; 125 g ai/ha): 70% | pest or weed control at 31 g/ha ([12]; 31 g ai/ha): 20% | pest or weed control at 125 g/ha ([12]; 125 g ai/ha): 70% | pest or weed control at 31 g/ha ([13]; 31 g ai/ha): 20% | pest or weed control at 125 g/ha ([13]; 125 g ai/ha): 30% | pest or weed control at 31 g/ha ([14]; 31 g ai/ha): 20% | pest or weed control at 125 g/ha ([14]; 125 g ai/ha): 90% | pest or weed control at 31 g/ha ([15]; 31 g ai/ha): 70% | pest or weed control at 125 g/ha ([15]; 125 g ai/ha): 80% | pest or weed control at 250 g/ha [16]: 95% | pest or weed control at 250 g/ha [17]: 75% | plant injury at 250 g/ha (rice (Oryza sativa)): 40% | pest or weed control at 250 g/ha [18]: 40%
